Values quoted from earlier work, collected in patent publication US9023853B2, “Janus kinase 2 (JAK2) inhibitor for the treatment of lupus” (Cephalon, Inc., priority 2010, dated 2015).
Like-named read-outs stand apart in the source and are kept apart here.

Settings: cited from earlier work

| SMILES | effectiveness in rheumatoid arthritis (doses of 5-30 mg twice per day) | effectiveness in rheumatoid arthritis (doses of 4-10 mg once daily) |
| --- | --- | --- |
| CC1CCN(C(=O)CC#N)CC1N(C)c1ncnc2[nH]ccc12 (stereo in doubt) [tasocitinib] | effective | – |
| CCS(=O)(=O)N1CC(CC#N)(n2cc(-c3ncnc4[nH]ccc34)cn2)C1 [INCB028050] | – | effective |
